In ChEMBL document CHEMBL3091422, “Endothelial lipase inhibitors for the treatment of atherosclerosis and cardiovascular disorders” (ACS Med Chem Lett, 2013):

Key:
[1] = biological target: T1, Endothelial lipase (Mus musculus, UniProt Q9WVG5); experiment: Inhibition of mouse endothelial lipase using PLAi as substrate measured for 30 mins by cell-based fluorescence assay
T1 sequence (Q9WVG5 whole entry): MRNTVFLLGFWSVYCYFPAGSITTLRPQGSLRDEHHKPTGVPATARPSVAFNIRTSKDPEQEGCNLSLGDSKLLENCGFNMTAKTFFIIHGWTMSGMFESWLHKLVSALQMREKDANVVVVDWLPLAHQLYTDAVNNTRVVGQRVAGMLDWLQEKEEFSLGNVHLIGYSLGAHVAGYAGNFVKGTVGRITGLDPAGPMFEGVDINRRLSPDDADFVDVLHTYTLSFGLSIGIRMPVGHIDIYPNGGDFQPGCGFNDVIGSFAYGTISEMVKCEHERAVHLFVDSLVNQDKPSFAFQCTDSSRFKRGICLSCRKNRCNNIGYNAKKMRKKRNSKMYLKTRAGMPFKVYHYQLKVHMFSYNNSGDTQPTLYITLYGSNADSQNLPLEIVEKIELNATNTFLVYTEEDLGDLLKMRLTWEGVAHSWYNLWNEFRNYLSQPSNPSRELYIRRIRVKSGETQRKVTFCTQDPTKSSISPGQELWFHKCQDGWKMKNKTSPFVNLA

[2] = biological target: T2, Endothelial lipase (Homo sapiens, UniProt Q9Y5X9); experiment: Inhibition of human endothelial lipase using PLAi as substrate measured for 30 mins by cell-based fluorescence assay
T2 sequence (Q9Y5X9 whole entry): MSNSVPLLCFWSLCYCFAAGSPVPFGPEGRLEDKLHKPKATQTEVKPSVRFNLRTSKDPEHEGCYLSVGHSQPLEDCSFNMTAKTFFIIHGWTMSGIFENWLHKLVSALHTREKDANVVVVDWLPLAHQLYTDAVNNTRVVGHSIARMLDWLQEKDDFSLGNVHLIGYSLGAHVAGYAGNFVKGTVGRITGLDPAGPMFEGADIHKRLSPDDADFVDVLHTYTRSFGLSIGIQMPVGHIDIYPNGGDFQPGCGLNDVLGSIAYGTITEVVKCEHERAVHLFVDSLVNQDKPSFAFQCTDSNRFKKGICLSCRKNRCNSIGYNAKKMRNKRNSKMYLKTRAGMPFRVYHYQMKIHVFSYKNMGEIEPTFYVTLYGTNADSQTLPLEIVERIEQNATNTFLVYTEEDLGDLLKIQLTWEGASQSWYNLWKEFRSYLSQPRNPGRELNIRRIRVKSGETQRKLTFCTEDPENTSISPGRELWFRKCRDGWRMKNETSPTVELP

Structure (SMILES)	IC50 [1]	IC50 [2]
COc1cc2c3c(c1)c(C(F)(F)F)c(CCc1ccccc1)n3CCC2	17 nM	14 nM
FC(F)(F)c1c(CCCc2ccccc2)n2c3c(cccc13)SCC2	33300 nM	33300 nM
Nc1cc2c3c(c1)c(C(F)(F)F)c(CCCc1ccccc1)n3CCC2	4 nM	4 nM
